This data set can be described thus: Modulation of P-gp (unknown origin) transfected in human MDA435/LCC6MDR cells assessed as paclitaxel IC50 for cell growth inhibition at 1 uM after 5 days by MTS assay.
With `COc1ccc(C2=C(c3ccc(OC)c(OC)c3)C(=O)N(C(=O)N3CCN(CC(=O)c4ccc(S(C)(=O)=O)cc4)CC3)C2=O)cc1OC`, the half-maximal inhibitory concentration (IC50) was 136 nM.

As for `COc1ccc(C2=C(c3ccc(OC)c(OC)c3)C(=O)N(C(=O)N3CCN(CC(=O)c4ccc(OCc5ccccc5)c(OC)c4)CC3)C2=O)cc1OC`, the IC50 amounted to 26 nM.

In the case of `CCCCC1OC(=O)c2cc(NC(=O)N3C(=O)C(c4ccc(OC)c(OC)c4)=C(c4ccc(OC)c(OC)c4)C3=O)ccc21` (centres undefined), the IC50 turned out to be 58 nM.

Consider `COc1ccc(C2=C(c3ccc(OC)c(OC)c3)C(=O)N(C(=O)Nc3ccc4c(c3)C(=O)OC4)C2=O)cc1OC`, for which the IC50 came to 126 nM.

As a reminder, the IC50 is the concentration that inhibits the measured activity by half.
